This note sets out measurements from BindingDB's records for doi:10.1021/jm980439q (State University of New York, 1999).

For orientation: Ki means the dissociation constant of the complex between target and ligand, obtained from inhibition or displacement.

Structures are written as SMILES.

The target of the assay is Voltage-dependent L-type calcium channel subunit alpha-1C (Cavia porcellus). Kind of assay: Displacement of [3H](+)-PN200-110 binding to calcium channels in guinea pig cardiac membranes. Background: In a radioligand displacement assay an active substance lowers the binding of a labelled ligand.
In the case of `CCOC(=O)C1=C(C)N=C(C)C(C(=O)OCC)C1c1c(C)noc1CCc1cccc2ccccc12` (stereo not drawn) [2,6-Dimethyl-4-[3-methyl-5-(2-naphthalen-1-yl-ethyl)-isoxazol-4-yl]-1,4-dihydro-pyridine-3,5-dicarboxylic acid diethyl ester], the Ki stood at 4.1 nM.

For `CCOC(=O)C1=C(C)N=C(C)C(C(=O)OCC)C1c1c(C)noc1CCc1ccc2ccccc2c1` (stereo not drawn) [2,6-Dimethyl-4-[3-methyl-5-(2-naphthalen-2-yl-ethyl)-isoxazol-4-yl]-1,4-dihydro-pyridine-3,5-dicarboxylic acid diethyl ester], the Ki amounted to 20 nM.

On to `CCOC(=O)C1=C(C)N=C(C)C(C(=O)OCC)C1c1c(C)noc1CCc1ccccc1-c1ccccc1` (stereo not drawn) [4-[5-(2-Biphenyl-2-yl-ethyl)-3-methyl-isoxazol-4-yl]-2,6-dimethyl-1,4-dihydro-pyridine-3,5-dicarboxylic acid diethyl ester], for which the Ki was 91 nM.
